Measurements: patent US20240368104A1, “Novel Dialkoxynaphtho[2,3-C]Furan-1(3H)-One Derivatives and Pharmaceutical Composition For Preventing or Treating Respiratory Disease or SARS-COV-2 Infection Disease, Comprising Same” (priority 2021, published 2024)
Like-named read-outs stand apart in the source and are kept apart here.

Tests used:
[1] = test system: SARS-COV-2; test: microbe, parasite or virus in culture; type: cell-based; set-up: SI (Selectivity Index, CC50/IC50): unit not given here; conditions: for SI (Selectivity Index, CC50/IC50): SARS-COV-2, values >50 assumed to be 50; for IC50: read-out: SARS-COV-2 inhibition (IC50)
[2] = in vitro; conditions: African green monkey
[3] = Severe acute respiratory syndrome coronavirus 2, Vero cells, 24 hours infection
[4] = Severe acute respiratory syndrome coronavirus 2, Vero, 24 h

COc1cc2cc3c(c(-c4cnc(OCCN5C[C@@H](C)O[C@@H](C)C5)nc4)c2cc1OC)C(=O)OC3 [Example 54, 9-(2-(2-((2S,6R)-2,6-dimethylmorpholino)ethoxy)pyrimidin-5-yl)-6,7-dimethoxynaphtho[2,3-c]furan-1(3H)-one]
SI (Selectivity Index, CC50/IC50) [1]: 1.00 | IC50 [1, 3]: > 50 µM | CC50 [2]: > 50 µM

COc1cc2cc3c(c(-c4ccc(N(C)Cc5cccnc5)cc4)c2cc1OC)C(=O)OC3 [Example 255, 6,7-dimethoxy-9-(4-(methyl(pyridin-3-ylmethyl)amino)phenyl)naphtho[2,3-c]furan-1(3H)-one]
SI (Selectivity Index, CC50/IC50) [1]: 15.74 | IC50 [1, 3]: 3.18 µM | CC50 [2]: > 50 µM

CCN(CCOC)c1ccc(-c2c3c(cc4cc(OC)c(OC)cc24)COC3=O)cc1 [Example 253, 9-(4-(ethyl(2-methoxyethyl)amino)phenyl)-6,7-dimethoxynaphtho[2,3-c]furan-1(3H)-one]
SI (Selectivity Index, CC50/IC50) [1]: 20.54 | IC50 [1, 3]: 2.43 µM | CC50 [2]: > 50 µM

COc1cc2cc3c(c(-c4ccc(N5CCOCC5)nn4)c2cc1OC)C(=O)OC3 [Example 219, 6,7-dimethoxy-9-(6-morpholinopyridazin-3-yl)naphtho[2,3-c]furan-1(3H)-one]
SI (Selectivity Index, CC50/IC50) [1]: 1.00 | IC50 [1, 3]: > 50 µM | CC50 [2]: > 50 µM

COc1cc2cc3c(c(-c4cc5c(cc4OC(=O)[C@@H]4CCCN4)OCO5)c2cc1OC)C(=O)OC3 [Example 273, 6-(6,7-dimethoxy-3-oxo-1,3-dihydronaphtho[2,3-c]furan-4-yl)benzo[d][1,3]dioxol-5-yl L-prolinate]
SI (Selectivity Index, CC50/IC50) [1]: 36.52 | IC50 [1, 3]: 1.37 µM | CC50 [2]: > 50 µM

COc1cc2cc3c(c(-c4cccc(N5CCCC5)c4)c2cc1OC)C(=O)OC3.Cl [Example 252, 6,7-dimethoxy-9-(3-(pyrrolidin-1-yl)phenyl)naphtho[2,3-c]furan-1(3H)-one]
SI (Selectivity Index, CC50/IC50) [1]: 1 | IC50 [1, 4]: > 50 µM | CC50 [2]: > 50 µM

CCN(c1ccc(-c2c3c(cc4cc(OC)c(OC)cc24)COC3=O)cn1)C1Cc2ccccc2C1 [Example 195, 9-(6-((2,3-dihydro-1H-indan-2-yl)(ethyl)amino)pyridin-3-yl)-6,7-dimethoxynaphtho[2,3-c]furan-1(3H)-one]
SI (Selectivity Index, CC50/IC50) [1]: 9.50 | IC50 [1, 3]: 5.27 µM | CC50 [2]: > 50 µM

COc1cc2cc3c(c(-c4cnc(N5CCC[C@H]5CO)nc4)c2cc1OC)C(=O)OC3.Cl [Example 83, (S)-9-(2-(2-(hydroxymethyl)pyrrolidin-1-yl)pyrimidin-5-yl)-6,7-dimethoxynaphtho[2,3-c]furan-1(3H)-one hydrochloride]
SI (Selectivity Index, CC50/IC50) [1]: 1.65 | IC50 [1, 4]: 30.3 µM | CC50 [2]: > 50 µM

COc1cc2cc3c(c(-c4cccc5ncccc45)c2cc1OC)C(=O)OC3 [Example 132, 6,7-dimethoxy-9-(quinolin-5-yl)naphtho[2,3-c]furan-1(3H)-one]
SI (Selectivity Index, CC50/IC50) [1]: 1.0 | IC50 [1, 3]: > 50 µM | CC50 [2]: > 50 µM

COc1cc2cc3c(c(-c4cnc(OC)c(-c5nc6ccccc6[nH]5)c4)c2cc1OC)C(=O)OC3 [Example 204, 9-(5-(1H-benzo[d]imidazol-2-yl)-6-methoxypyridin-3-yl)-6,7-dimethoxynaphtho[2,3-c]furan-1(3H)-one]
SI (Selectivity Index, CC50/IC50) [1]: 0.93 | IC50 [1, 4]: 25.9 µM | CC50 [2]: 24.2 µM

COc1cc2cc3c(c(-c4cc5c(cc4OC(C)=O)OCO5)c2cc1OC)C(=O)OC3 [Example 274, 6-(6,7-dimethoxy-3-oxo-1,3-dihydronaphtho[2,3-c]furan-4-yl)benzo[d][1,3]dioxol-5-yl acetate]
SI (Selectivity Index, CC50/IC50) [1]: 19.61 | IC50 [1, 3]: 2.55 µM | CC50 [2]: > 50 µM

COc1cc2cc3c(c(-c4ccc(N(C)C5CCCC5)nc4)c2cc1OC)C(=O)OC3 [Example 177, 9-(6-(cyclopentyl(methyl)amino)pyridin-3-yl)-6,7-dimethoxynaphtho[2,3-c]furan-1(3H)-one]
SI (Selectivity Index, CC50/IC50) [1]: 180.12 | IC50 [1, 3]: 0.28 µM | CC50 [2]: > 50 µM

COc1cc2cc3c(c(-c4cc5c(cc4OC(=O)C(C)(C)C)OCO5)c2cc1OC)C(=O)OC3 [Example 276, 6-(6,7-dimethoxy-3-oxo-1,3-dihydronaphtho[2,3-c]furan-4-yl)benzo[d][1,3]dioxol-5-yl pivalate]
SI (Selectivity Index, CC50/IC50) [1]: 1.00 | IC50 [1, 3]: > 50 µM | CC50 [2]: > 50 µM

COc1cc2cc3c(c(-c4ccc5nc(C)cc(O)c5c4)c2cc1OC)C(=O)OC3 [Example 147, 9-(4-hydroxy-2-methylquinolin-6-yl)-6,7-dimethoxynaphtho[2,3-c]furan-1(3H)-one]
SI (Selectivity Index, CC50/IC50) [1]: 1.0 | IC50 [1, 3]: > 50 µM | CC50 [2]: > 50 µM

COc1cc2cc3c(c(-c4cnc(N)cn4)c2cc1OC)C(=O)OC3 [Example 30, 9-(5-aminopyrazin-2-yl)-6,7-dimethoxynaphtho[2,3-c]furan-1(3H)-one]
SI (Selectivity Index, CC50/IC50) [1]: 1.00 | IC50 [1, 3]: > 50 µM | CC50 [2]: > 50 µM

COc1cc2cc3c(c(-c4ccc5c(c4)CN(C)CC5)c2cc1OC)C(=O)OC3 [Example 190, 6,7-dimethoxy-9-(2-methyl-1,2,3,4-tetrahydroisoquinolin-7-yl)naphtho[2,3-c]furan-1(3H)-one]
SI (Selectivity Index, CC50/IC50) [1]: 1.73 | IC50 [1, 3]: 29 µM | CC50 [2]: > 50 µM

COc1cc2cc3c(c(-c4ccc(N5CCN(C)CC5)nc4)c2cc1OC)C(=O)OC3 [Example 167, 6,7-dimethoxy-9-(6-(4-methylpiperazin-1-yl)pyridin-3-yl)naphtho[2,3-c]furan-1(3H)-one]
SI (Selectivity Index, CC50/IC50) [1]: 3.73 | IC50 [1, 3]: 14.8 µM | CC50 [2]: > 50 µM

COc1cc2cc3c(c(-c4ccc(N5CCC6(CC5)OCCO6)nc4)c2cc1OC)C(=O)OC3 [Example 166, 9-(6-(1,4-dioxa-8-azaspiro[4.5]decan-8-yl)pyridin-3-yl)-6,7-dimethoxynaphtho[2,3-c]furan-1(3H)-one]
SI (Selectivity Index, CC50/IC50) [1]: 18.50 | IC50 [1, 3]: 2.7 µM | CC50 [2]: > 50 µM

COCCOc1cncc(-c2c3c(cc4cc(OC)c(OC)cc24)COC3=O)c1 [Example 173, 6,7-dimethoxy-9-(5-(2-methoxyethoxy)pyridin-3-yl)naphtho[2,3-c]furan-1(3H)-one]
SI (Selectivity Index, CC50/IC50) [1]: 1.0 | IC50 [1, 3]: > 50 µM | CC50 [2]: > 50 µM

COc1cc2c(OC)c3c(c(-c4ccc(N(C)C5Cc6ccccc6C5)nc4)c2cc1OC)COC3=O.Cl [Example 268, 4-(6-((2,3-dihydro-1H-indan-2-yl)(methyl)amino)pyridin-3-yl)-6,7,9-trimethoxynaphtho[2,3-c]furan-1(3H)-one]
SI (Selectivity Index, CC50/IC50) [1]: 1.00 | IC50 [1, 4]: > 50 µM | CC50 [2]: > 50 µM

COc1cc2cc3c(c(N4CC(C)CC(C)C4)c2cc1OC)C(=O)OC3 (stereo not drawn) [Example 4, 9-(3,5-dimethylpiperidin-1-yl)-6,7-dimethoxynaphtho[2,3-c]furan-1(3H)-one]
SI (Selectivity Index, CC50/IC50) [1]: 4.45 | IC50 [1, 3]: 11.2 µM | CC50 [2]: > 50 µM

COc1cc2cc3c(c(-c4ccc5ncc(C)cc5c4)c2cc1OC)C(=O)OC3 [Example 120, 6,7-dimethoxy-9-(3-methylquinolin-6-yl)naphtho[2,3-c]furan-1(3H)-one]
SI (Selectivity Index, CC50/IC50) [1]: 12.07 | IC50 [1, 3]: 4.14 µM | CC50 [2]: > 50 µM

COc1cc2cc3c(c(-c4cnc(N(C)CC(OC)OC)nc4)c2cc1OC)C(=O)OC3 [Example 94, 9-(2-((2,2-dimethoxyethyl)(methyl)amino)pyrimidin-5-yl)-6,7-dimethoxynaphtho[2,3-c]furan-1(3H)-one]
SI (Selectivity Index, CC50/IC50) [1]: 10.16 | IC50 [1, 3]: 4.92 µM | CC50 [2]: > 50 µM

CCN(CC)c1ncc(-c2c3c(cc4cc(OC)c(OC)cc24)COC3=O)cn1 [Example 74, 9-(2-(diethylamino)pyrimidin-5-yl)-6,7-dimethoxynaphtho[2,3-c]furan-1(3H)-one]
SI (Selectivity Index, CC50/IC50) [1]: 98.94 | IC50 [1, 3]: 0.51 µM | CC50 [2]: > 50 µM

COCCN(C)c1ccc(-c2c3c(cc4cc(OC)c(OC)cc24)COC3=O)cc1 [Example 256, 6,7-dimethoxy-9-(4-((2-methoxyethyl)(methyl)amino)phenyl)naphtho[2,3-c]furan-1(3H)-one]
SI (Selectivity Index, CC50/IC50) [1]: 82.38 | IC50 [1, 3]: 0.61 µM | CC50 [2]: > 50 µM

COc1cc2cc3c(c(-c4cncc(OCCN(C)C)c4)c2cc1OC)C(=O)OC3.Cl [Example 187, 9-(5-(2-(dimethylamino)ethoxy)pyridin-3-yl)-6,7-dimethoxynaphtho[2,3-c]furan-1(3H)-one]
SI (Selectivity Index, CC50/IC50) [1]: 1.0 | IC50 [1, 4]: > 50 µM | CC50 [2]: > 50 µM

COCCN(C)c1c2c(cc3cc(OC)c(OC)cc13)COC2=O [Example 5, 6,7-dimethoxy-9-((2-methoxyethyl)(methyl)amino)naphtho[2,3-c]furan-1(3H)-one]
SI (Selectivity Index, CC50/IC50) [1]: 1.00 | IC50 [1, 3]: > 50 µM | CC50 [2]: > 50 µM

COc1cc2cc3c(c(-c4ccc(N(C)C5CCCCC5)nc4)c2cc1OC)C(=O)OC3 [Example 175, 9-(6-(cyclohexyl(methyl)amino)pyridin-3-yl)-6,7-dimethoxynaphtho[2,3-c]furan-1(3H)-one]
SI (Selectivity Index, CC50/IC50) [1]: 42.02 | IC50 [1, 3]: 1.19 µM | CC50 [2]: > 50 µM

COc1ccc2c(-c3c4c(cc5cc(OC)c(OC)cc35)COC4=O)ccnc2c1 [Example 150, 6,7-dimethoxy-9-(7-methoxyquinolin-4-yl)naphtho[2,3-c]furan-1(3H)-one]
SI (Selectivity Index, CC50/IC50) [1]: 1.0 | IC50 [1, 3]: > 50 µM | CC50 [2]: > 50 µM

COc1cc2cc3c(c(-c4cccc(N5CCOCC5)c4)c2cc1OC)C(=O)OC3 [Example 244, 6,7-dimethoxy-9-(3-morpholinophenyl)naphtho[2,3-c]furan-1(3H)-one]
SI (Selectivity Index, CC50/IC50) [1]: 1.00 | IC50 [1, 3]: > 50 µM | CC50 [2]: > 50 µM
